Source: patent US8143418B2, “Dimeric small molecule potentiators of apoptosis” (Board of Regents, The University of Texas System, priority 2004, dated 2012)

Test system: Wap-ras tumors
Experiment: In vivo therapy in the WAP-RAS transgenic model
Set-up: species or system mice
Settings: mimetic 20 mpk po every 12 hours; Paclitaxel 5 mpk ip
Description: Mimetic and Paclitaxel combination efficacy is also evaluated in the Wap-ras transgenic model.
Mimetics (20 mpk/dosing po) were dissolved in 20% hydroxyl-propyl-betacyclodexatrin (Vehicle I). 0.2 ml of mimetic solution is the oral dosing volume. Paclitaxel (5 mpk/dosing ip) was dissolved in a diluted ethanol/cremophor EL solution (vehicle II) and the i.p. dosing volume for paclitaxel was 0.1 ml.
The mice are weighed, randomized, and ear-marked on Day 0. Mimetic treatment and Vehicle I treatment began on Day 1 and continued every 12 hours until Day 21. Paclitaxel and Vehicle II treatments are started on Day 4 and continued daily on Day 5, 6, and 7.

For CC(=O)O[C@H]1C(=O)[C@@]2(C)[C@H]([C@H](OC(=O)c3ccccc3)[C@]3(O)C[C@H](OC(=O)[C@H](O)[C@@H](NC(=O)c4ccccc4)c4ccccc4)C(C)=C1C3(C)C)[C@]1(OC(C)=O)CO[C@@H]1C[C@@H]2O [Paclitaxel], the “tumor response to treatment” value was “do not respond”.
